Entries after “also recorded” stand apart in the source; their conditions may differ.
Key:
O-GlcNAcase = target: T1, O-GlcNAcase (Homo sapiens, UniProt O60502); experiment: Assay for determination of K1 values for inhibition of O-GlcNAcase activity; format: biochemical; settings: pNP-GlcNAc 0.5 mM, PBS buffer pH 7.4, 37° C., Dixon plots
T1 sequence (O60502 1-916): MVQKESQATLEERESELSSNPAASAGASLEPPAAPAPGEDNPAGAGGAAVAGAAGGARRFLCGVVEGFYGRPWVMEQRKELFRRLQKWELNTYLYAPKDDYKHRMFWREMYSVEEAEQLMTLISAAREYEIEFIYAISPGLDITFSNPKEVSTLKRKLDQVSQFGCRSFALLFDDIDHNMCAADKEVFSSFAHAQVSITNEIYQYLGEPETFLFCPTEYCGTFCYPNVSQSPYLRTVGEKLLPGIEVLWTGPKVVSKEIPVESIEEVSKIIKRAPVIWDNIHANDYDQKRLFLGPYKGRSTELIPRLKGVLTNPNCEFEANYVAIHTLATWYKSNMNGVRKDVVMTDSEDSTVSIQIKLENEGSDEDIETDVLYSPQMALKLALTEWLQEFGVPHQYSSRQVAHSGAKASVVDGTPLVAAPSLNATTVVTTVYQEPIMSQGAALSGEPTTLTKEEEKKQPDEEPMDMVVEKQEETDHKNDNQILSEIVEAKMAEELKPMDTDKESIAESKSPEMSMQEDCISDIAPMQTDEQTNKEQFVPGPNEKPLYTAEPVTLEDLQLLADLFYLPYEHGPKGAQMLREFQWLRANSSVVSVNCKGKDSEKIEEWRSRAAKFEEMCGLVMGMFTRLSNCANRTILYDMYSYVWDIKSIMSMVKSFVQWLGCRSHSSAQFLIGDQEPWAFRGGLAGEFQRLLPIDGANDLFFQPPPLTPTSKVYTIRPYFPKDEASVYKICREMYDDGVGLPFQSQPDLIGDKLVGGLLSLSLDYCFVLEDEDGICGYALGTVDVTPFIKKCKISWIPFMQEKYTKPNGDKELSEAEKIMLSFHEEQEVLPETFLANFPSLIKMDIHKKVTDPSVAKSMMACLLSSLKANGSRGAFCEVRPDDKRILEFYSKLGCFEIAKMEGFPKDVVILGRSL
Experimental: Assay for Determination of […] for Inhibition of O-GlcNAcase Activity Experimental procedure for kinetic analyses: Enzymatic reactions were carried out in PBS buffer (pH 7.4) using pNP-GlcNAc as a substrate (0.5 mM) and monitored continuously at 37° C. at 400 nm using a Cary 3E UV-VIS spectrophotometer equipped with a Peltier temperature controller. Reactions were pre-heated in a 500 μl, quartz cuvette for approximately 5 minutes followed by addition of 10 μL enzyme via syringe (final enzyme concentration 0.002 mg/mL). Reaction velocities were determined by linear regression of the linear region of the reaction progress curve between the first and third minutes. An inhibitor concentration range of ⅕ to 5 times K1 was used in each case. […] All K1 values are determined using linear regression of Dixon plots.

3T3-L1 cells = experiment: Western blot of cellular levels of O-GlcNAc-modified proteins in 3T3-L1 cells; format: cell-based; settings: 100 μM, 16 hours, anti-O-GlcNAc mAb CTD110.6, compared to control
Experimental: FIGS. 1A-B show Western blots of proteins from 3T3-L1 cells cultured for 16 hours in the presence or absence of 100 μM of Compound 1 (Table 1). Incubation of 3T3-L1 cells with Compound 1 causes an increase in cellular levels of O-GlcNAc-modified proteins; plus signs (“+”) indicate presence of Compound 1, while minus signs (“−”) indicate absence of Compound 1. FIG. 1A: Western blot analysis of cellular levels of O-GlcNAc-modified proteins using anti-O-GlcNAc MAb CTD 110.6 followed by an anti-mouse IgG-HRP conjugate.
Western Blot Analyses: 3T3-L1 adipocytes were treated with Compound 1 at 100 μM for 16 hours. Cells were harvested by adding 400 μL of 1% SDS with 50 mM beta-ME, boiling this for 10 minutes, using these lysates in subsequent Western blots. Briefly, samples were separated by SDS-PAGE (10% gels), transferred to nitrocellulose membrane (Bio-Rad), blocked for one hour at room temperature (RT) with 1% bovine serum albumin (BSA) in PBS containing 0.1% Tween-20 (PBS-T) and then subsequently probed with the appropriate primary antibody delivered in 1% BSA in PBS-T for overnight at 4° C. […]

`CC(=O)N[C@H]1CN2CC[C@H](O)[C@@H]2[C@@H](O)[C@@H]1O` [Compound 1] was tested, and the Ki (O-GlcNAcase) was 670 nM and the “cellular levels of O-GlcNAc-modified proteins” value (3T3-L1 cells) was “Marked increases; also recorded: increase”.

From US8541441B2, “Selective glycosidase inhibitors and uses thereof” (Simon Fraser University, priority 2008, dated 2013)
